From patent US20230301991A1, “COMPOUNDS FOR THE TREATMENT OF VIRAL INFECTIONS” (priority 2020, published 2023)

Key:
MERS = assay type: cell-based
SARS-CoV-1 = assay type: cell-based
SARS-CoV-2 = assay type: cell-based

## CNCc1ccc(-c2cc(-c3nc(-c4ccc(S(=O)(=O)C(C)C)cc4)cnc3N)on2)cc1 [Compound 1, 3-[3-(4-Methylaminomethyl-phenyl)-isoxazol-5-yl]-5-[4-(propane-2-sulfonyl)-phenyl]-pyrazin-2-ylamine]
MERS
  inhibition of virus replication: dose dependent inhibition
SARS-CoV-1
  inhibition of virus replication: dose dependent inhibition
SARS-CoV-2
  inhibition in cells infected by SARS-CoV-2 compared with remdesivir: comparable with that of the antiviral reference substance remdesivir
  inhibition of virus replication: dose dependent inhibition
Calu-3
  cell viability: remains nearly unaffected
